Tested on: Plasmodium berghei
Experiment: Luciferase/luciferin-expressing antifolate-resistant parasites were used to infect a culture of HepG2 cells that were pre-incubated with compounds. Infected hepatocytes emit light due to the luciferase reaction. Assay results are presented as the percent inhibition of light emission compared to control. […]
Type: functional
Settings: sporozoite; for IC90: read-out: LUCIFERASE INFECTION ASSAY - IC90
[1] = read-out: LUCIFERASE INFECTION ASSAY - IC50

Row | SMILES | IC90 | further results
1 | CN(C)c1ccc(-c2cnc3ccc(NCc4ccc5c(c4)OCO5)nn23)cc1 | 3.57 µM | IC50 (HEPG2TOX_HILL_SLOPE 1.81, HEPG2TOX_R_SQUARED 0.969, PBLUC_HILL_SLOPE 2.01, PBLUC_R_SQUARED 0.65, read-out: LUCIFERASE INFECTION ASSAY - IC50): 1.2 µM
2 | CC1(C)CC(=O)C=C(Sc2nc3cc(Cl)ccc3s2)C1 | > 10.2 µM | IC50 [1]: > 10.2 µM
3 | CNc1ncnc(NNC(=O)Nc2ccccc2)c1[N+](=O)[O-] | > 10.9 µM | IC50 (HEPG2TOX_HILL_SLOPE 0.255, HEPG2TOX_R_SQUARED 0.589, PBLUC_HILL_SLOPE 1.34, PBLUC_R_SQUARED 0.392, read-out: LUCIFERASE INFECTION ASSAY - IC50): 6.01 µM
4 | CCCCn1nc(C)c(C(=O)Nc2nc3ccccc3[nH]2)c1Cl | > 10 µM | IC50 (PBLUC_HILL_SLOPE 0.43, PBLUC_R_SQUARED 0.84, read-out: LUCIFERASE INFECTION ASSAY - IC50): 0.0912 µM
5 | CC(c1ccc(-c2ccccc2)c(F)c1)c1nn2c(-c3ccco3)nnc2s1 (configuration not stated) | 2.45 µM | IC50 [1]: 0.85 µM
6 | COc1cccc(Cn2nc(C(=O)NC3CC3)c3c2CCN(C(=O)c2cc4ccccc4[nH]2)C3)c1 | > 7.03 µM | IC50 [1]: > 7.03 µM
7 | O=C(COC(=O)c1ccccc1Nc1cccc(C(F)(F)F)c1)c1ccc(C2CCCCC2)cc1 | > 10 µM | IC50 [1]: > 10 µM
8 | Clc1cccc(-c2cc3c(Nc4ccc5c(c4)OCCO5)nccc3[nH]2)c1 | > 10 µM | IC50 (HEPG2TOX_HILL_SLOPE 12.1, HEPG2TOX_R_SQUARED 0.71, PBLUC_HILL_SLOPE 1.15, PBLUC_R_SQUARED 0.766, read-out: LUCIFERASE INFECTION ASSAY - IC50): 1.75 µM
9 | N#CC(=C1SCCCCS1)S(=O)(=O)c1ccccc1 | > 10.6 µM | IC50 [1]: > 10.6 µM
10 | COc1ccc(OC)c(-c2csc(NC(=O)c3[nH]c(C)c(C(C)=O)c3C)n2)c1 | > 10 µM | IC50 (PBLUC_HILL_SLOPE 2.64, PBLUC_R_SQUARED 0.217, read-out: LUCIFERASE INFECTION ASSAY - IC50): 5.92 µM
11 | CC(C)(C)c1ccc(Oc2ccc(/C=C/C(=O)c3ccc(NC4=NCCCS4)cc3)cc2[N+](=O)[O-])cc1 | > 10 µM | IC50 (PBLUC_HILL_SLOPE 13, PBLUC_R_SQUARED 0.461, read-out: LUCIFERASE INFECTION ASSAY - IC50): 8.77 µM
12 | CCn1ncc2c(C(=O)Nc3nc(-c4ccc(OC)cc4OC)cs3)cc(-c3cccs3)nc21 | > 10 µM | IC50 [1]: > 10 µM
13 | Cc1cccc(N/N=C2\C=NN=C2c2ccc(Br)cc2)c1 | > 9.67 µM | IC50 (FFLUC_HILL_SLOPE 12.3, FFLUC_R_SQUARED 0.435, HEPG2TOX_HILL_SLOPE 0.345, HEPG2TOX_R_SQUARED 0.819, PBLUC_HILL_SLOPE 10.9, PBLUC_R_SQUARED 0.46, read-out: LUCIFERASE INFECTION ASSAY - IC50): 9.21 µM
14 | COc1cccc(-c2cc3c(cn2)nc(NCCc2cc(OC)ccc2OC)n3C)c1 | 0.667 µM | IC50 (HEPG2TOX_HILL_SLOPE 2.25, HEPG2TOX_R_SQUARED 0.767, PBLUC_HILL_SLOPE 1.04, PBLUC_R_SQUARED 0.785, read-out: LUCIFERASE INFECTION ASSAY - IC50): 0.0813 µM
15 | CC(C)c1cc(C(C)C)c(S(=O)(=O)Nc2ccc(O)cc2)c(C(C)C)c1 | 3.98 µM | IC50 (FFLUC_HILL_SLOPE 2.79, FFLUC_R_SQUARED 0.606, PBLUC_HILL_SLOPE 11.9, 14.6, PBLUC_R_SQUARED 0.380, 0.737, read-out: LUCIFERASE INFECTION ASSAY - IC50): 3.36 µM
16 | CN(CC(=O)Nc1nc2ccc(Cl)cc2s1)S(=O)(=O)c1ccc(C#N)cc1 | 8.36 µM | IC50 [1]: 5.71 µM
17 | FC(F)(F)c1cccc(-c2ccc3ncc(-c4ccncc4)n3n2)c1 | 1.31 µM | IC50 (HEPG2TOX_HILL_SLOPE 8.22, HEPG2TOX_R_SQUARED 0.275, PBLUC_HILL_SLOPE 7.22, PBLUC_R_SQUARED 0.51, read-out: LUCIFERASE INFECTION ASSAY - IC50): 0.969 µM

Row | SMILES | IC90 | further results
18 | CC(C)c1ccc(CN2CCC2(C)C(=O)Nc2cnc3ccccc3c2)cc1 (configuration not stated) | 3.79 µM | IC50 (PBLUC_HILL_SLOPE 15.4, PBLUC_R_SQUARED 0.671, read-out: LUCIFERASE INFECTION ASSAY - IC50): 3.29 µM
19 | CCn1c(O)c(C2NCCc3c2[nH]c2ccc(OC)cc32)c(=O)[nH]c1=O (configuration not stated) | 4.71 µM | IC50 (HEPG2TOX_HILL_SLOPE 0.178, HEPG2TOX_R_SQUARED 0.706, PBLUC_HILL_SLOPE 1.13, PBLUC_R_SQUARED 0.918, read-out: LUCIFERASE INFECTION ASSAY - IC50): 0.675 µM
20 | COc1cccc(CN2CCN3C=C(C(=O)Nc4ccc(C(C)C)cc4)OC3=NC2=O)c1 | 9.3 µM | IC50 (HEPG2TOX_HILL_SLOPE 3.72, HEPG2TOX_R_SQUARED 0.984, PBLUC_HILL_SLOPE 3.98, PBLUC_R_SQUARED 0.662, read-out: LUCIFERASE INFECTION ASSAY - IC50): 5.35 µM
21 | Cn1c(SCC(=O)NC2CCCc3ccccc32)nnc1-c1cccnc1 (configuration not stated) | > 10 µM | IC50 (PBLUC_HILL_SLOPE 11.1, PBLUC_R_SQUARED 0.239, read-out: LUCIFERASE INFECTION ASSAY - IC50): 8.8 µM
22 | CCNC(=O)c1nn(Cc2ccccc2)c2c1CC(NCc1ccc(Cl)s1)CC2 (configuration not stated) | > 7.69 µM | IC50 (PBLUC_HILL_SLOPE 15.3, PBLUC_R_SQUARED 0.172, read-out: LUCIFERASE INFECTION ASSAY - IC50): 7.58 µM
23 | Cc1c(C(=O)Nc2nonc2-c2ccc(F)cc2)oc2ccc(F)cc12 | 8.3 µM | IC50 (HEPG2TOX_HILL_SLOPE 16.1, HEPG2TOX_R_SQUARED 0.611, PBLUC_HILL_SLOPE 12, PBLUC_R_SQUARED 0.0677, read-out: LUCIFERASE INFECTION ASSAY - IC50): 6.91 µM
24 | CCOC(=O)c1c(-c2cccs2)csc1NC(=O)c1c(S)n(-c2ccccc2C)c2ccc(C)c[n+]12 | > 10 µM | IC50 (FFLUC_HILL_SLOPE 11.9, FFLUC_R_SQUARED 0.481, read-out: LUCIFERASE INFECTION ASSAY - IC50): > 10 µM
25 | O=C(N/N=C/c1c(Cl)nc2ccccn2c1=O)c1ccc(F)cc1 | > 10 µM | IC50 [1]: > 10 µM
26 | CC1CCN(Cc2nc(SC3CCCC3)c3c4c(sc3n2)CCC4)CC1 | > 10 µM | IC50 (PBLUC_HILL_SLOPE 9.85, PBLUC_R_SQUARED 0.167, read-out: LUCIFERASE INFECTION ASSAY - IC50): 9.59 µM
27 | COc1ccc(C(N)=O)c(OCCC23CC4CC(CC(C4)C2)C3)c1 | > 10 µM | IC50 (PBLUC_HILL_SLOPE 2.6, PBLUC_R_SQUARED 0.547, read-out: LUCIFERASE INFECTION ASSAY - IC50): 6.07 µM
28 | O=C(Nc1nc(-c2ccccn2)cs1)c1ccc(-n2cncn2)cc1 | 1.2 µM | IC50 (HEPG2TOX_HILL_SLOPE 1.34, HEPG2TOX_R_SQUARED 0.829, PBLUC_HILL_SLOPE 31.3, PBLUC_R_SQUARED 0.545, read-out: LUCIFERASE INFECTION ASSAY - IC50): 1.12 µM
29 | Cn1ccc2cc(-c3cnc4cnc(-c5ccccc5CO)cn34)ccc21 | 0.0193 µM | 
30 | NS(=O)(=O)c1ccc(CCNc2nn3c(-c4cccc(C(F)(F)F)c4)cnc3s2)cc1 | > 7.06 µM | IC50 (FFLUC_HILL_SLOPE 7.49, FFLUC_R_SQUARED 0.26, read-out: LUCIFERASE INFECTION ASSAY - IC50): > 7.06 µM
31 | O=C(Nc1ccc(N2CCN(c3ccc(C(F)(F)F)cn3)CC2)nc1)c1cccs1 | > 7.61 µM | IC50 (PBLUC_HILL_SLOPE 0.747, PBLUC_R_SQUARED 0.763, read-out: LUCIFERASE INFECTION ASSAY - IC50): 0.638 µM
32 | Cc1ccc(-n2nc(C)c(NC(=O)COc3ccc4c(=O)c(-c5ccccc5)coc4c3)c2C)cc1 | 3.64 µM | IC50 (HEPG2TOX_HILL_SLOPE 9.24, HEPG2TOX_R_SQUARED 0.0911, PBLUC_HILL_SLOPE 28.6, PBLUC_R_SQUARED 0.544, read-out: LUCIFERASE INFECTION ASSAY - IC50): 3.37 µM
33 | CCOc1ccc(C(=O)CCC(=O)O)cc1 | > 14.8 µM | IC50 [1]: > 14.8 µM
34 | CC(=O)Nc1ccc(Sc2ccc(S(C)(=O)=O)cc2[N+](=O)[O-])cc1 | > 10 µM | IC50 [1]: > 10 µM

— ChEMBL document CHEMBL4483862, “Open-source discovery of chemical leads for next-generation chemoprotective antimalarials” (2018)
